“Also recorded” adds a separate entry of the source. Where a name gives a salt, the structure may show the parent alone.
How the values were obtained:
[1] = test system: Trychophyton mentagrophytes; experiment: Paper disk zone of clearance assay on YEPD agar; format: cell-based; settings: 4 days 30° C.
Description: The antifungal activity of a range of concentrations of terbinafine, encompassing the concentrations range passing through the nails in the Franz cells, was tested. Terbinafine was diluted to the following concentrations in double distilled water: 60, 6, 0.6 and 0.06 μg/ml. 40 μl of each terbinafine solution and double distilled water alone was spotted onto a 10 mm sterile 3 MM paper disk. Each disk was placed on a lawn of Trychophyton mentagrophytes plated on yeast extract peptone dextrose (YEPD) agar plates. T. mentagrophytes was used as a laboratory fungal strain due to its relevance to key pathogenic species in onychomycosis (fungal nail infection). The agar plates were inverted and incubated at 30° C. for 4 days. The plates were photographed and analysed for zones of clearance, which indicate antifungal activity.

[2] = Nanoparticle formation, number and size on Malvern Instruments Nanosight LM10; format: physicochemical; settings: 0.1 mg/ml terbinafine in 30% ethanol, with or without 0.3 mg/ml PHMB, room temperature at least 24 hours; for particle number: hydrochloride
Description: Terbinafine was mixed at 0.1 mg/ml in 30% ethanol and incubated at room temperature for at least 24 hours up to a maximum of 47 days. Another formulation was prepared by mixing terbinafine at 0.1 mg/ml in 30% ethanol and then adding PHMB to 0.3 mg/ml. The formulation was incubated at room temperature for at least 24 hours up to a maximum of 112 days. The number and size of any nanoparticles formed were measured using a Malvern Instruments Nanosight LM10.

Q: Which results are given for `CN(C/C=C/C#CC(C)(C)C)Cc1cccc2ccccc12` [terbinafine, terbinafine hydrochloride]?
A: zone of clearance ([1]; 40 μl of 0.06 μg/ml solution on 10 mm disk): no zone of clearance; zone of clearance ([1]; 40 μl of 0.6 μg/ml solution on 10 mm disk, hydrochloride): clear zones of clearance; also recorded: Progressively smaller zones of clearance; zone of clearance ([1]; 40 μl of 6 μg/ml solution on 10 mm disk, hydrochloride): clear zones of clearance; also recorded: Progressively smaller zones of clearance; zone of clearance ([1]; 40 μl of 60 μg/ml solution on 10 mm disk, hydrochloride): clear zones of clearance; also recorded: largest zone of clearance; particle size range [2]: 50-800 nm; particle number [2]: 0.5×10^8 particles/ml; particle number ([2]; listed as terbinafine alone): Approximately 0.5×10^8 particles/ml
